For one experiment, the target named is T1, PDE2 (Bos taurus, UniProt P14099).
T1 construct: PDE2 was prepared from bovine endothelial cells by the same methods; endogenous in cells; host or cells: bovine endothelial cells
T1 sequence (P14099 1-921): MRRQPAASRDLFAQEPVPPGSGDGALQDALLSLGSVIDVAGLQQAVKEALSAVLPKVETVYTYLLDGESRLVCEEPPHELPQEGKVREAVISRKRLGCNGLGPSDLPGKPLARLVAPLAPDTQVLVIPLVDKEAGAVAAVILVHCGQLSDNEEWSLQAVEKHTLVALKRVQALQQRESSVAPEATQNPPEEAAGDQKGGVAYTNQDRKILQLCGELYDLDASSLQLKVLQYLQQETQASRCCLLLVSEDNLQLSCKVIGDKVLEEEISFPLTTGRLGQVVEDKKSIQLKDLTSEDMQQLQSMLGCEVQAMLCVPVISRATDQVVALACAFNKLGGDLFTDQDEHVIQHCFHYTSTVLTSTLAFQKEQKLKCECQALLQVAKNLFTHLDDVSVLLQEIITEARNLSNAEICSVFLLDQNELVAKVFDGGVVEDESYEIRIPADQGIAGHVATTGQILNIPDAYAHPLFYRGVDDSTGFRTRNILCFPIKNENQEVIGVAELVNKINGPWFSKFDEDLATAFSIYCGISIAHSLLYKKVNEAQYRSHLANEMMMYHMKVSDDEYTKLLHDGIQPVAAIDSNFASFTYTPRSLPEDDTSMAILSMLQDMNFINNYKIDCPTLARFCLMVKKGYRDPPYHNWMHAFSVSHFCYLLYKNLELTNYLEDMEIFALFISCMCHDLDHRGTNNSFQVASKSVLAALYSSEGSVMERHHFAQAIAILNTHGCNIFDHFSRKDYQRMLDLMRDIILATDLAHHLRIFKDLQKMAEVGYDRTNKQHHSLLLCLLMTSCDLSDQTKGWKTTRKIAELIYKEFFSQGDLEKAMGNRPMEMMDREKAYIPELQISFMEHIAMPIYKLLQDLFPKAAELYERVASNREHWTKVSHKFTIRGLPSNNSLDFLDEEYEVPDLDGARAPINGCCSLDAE
The experiment in a line: Inhibition of PDE2, radioenzymatic phosphodiesterase assay. Type of experiment: biochemical, bovine.
Conditions: not given
For the compound `COc1cc2c(cc1OC)N(C)C(=O)CN=C2c1cccc(C#N)c1` [Compound 4a, 3-(7,8-dimethoxy-1-methyl-2-oxo-2,3-dihydro-1H-1,4-benzodiazepin-5-yl)-benzonitrile], the IC50 – broadly, the concentration at which inhibition is half-maximal – was 6.7 µM. Turning to `COc1cc2c(cc1OC)N(Cc1ccccc1)C(=O)CN=C2c1cccc(C#N)c1` [Compound 4m, 3-(1-benzyl-7,8-dimethoxy-2-oxo-2,3-dihydro-1H-1,4-benzodiazepin-5-yl)benzonitrile], the IC50 was 1.5 µM. This IC50 lies about 4.5-fold lower than the previous one. Still for that read-out and setting: the same measure for `CCOC(=O)CN1C(=O)CN=C(c2cccc(C#N)c2)c2cc(OC)c(OC)cc21` [Compound 4n, Ethyl[5-(3-cyanophenyl)-7,8-dimethoxy-2-oxo-2,3-dihydro-1H-1,4-benzodiazepin-1-yl]acetate]: 3.7 µM; for `COc1cc2c(cc1OC)C(c1cccc(C(N)=O)c1)=NCC(=O)N2` [Compound 5e, 3-(7,8-dimethoxy-2-oxo-2,3-dihydro-1H-1,4-benzodiazepin-5-yl)benzamide]: 6.6 µM; for `CCCN1C(=O)CN=C(c2cccc(C(N)=O)c2)c2cc(OC)c(OC)cc21` [Compound 5f, 3-(7,8-dimethoxy-1-propyl-2-oxo-2,3-dihydro-1H-1,4-benzodiazepin-5-yl)benzamide]: 12.6 µM.

`CCN1C(=O)CN=C(c2cccc(C(N)=O)c2)c2cc(OC)c(OC)cc21` [Compound 5g, 3-(1-ethyl-7,8-dimethoxy-2-oxo-2,3-dihydro-1H-1,4-benzodiazepin-5-yl)benzamide] yielded an IC50 of 24.6 µM. Still for that read-out and setting: the figure for `COc1cc2c(cc1OC)N(C)C(=O)C(C)N=C2c1cccc(C(N)=O)c1` (stereo not shown) [Compound 5j, 3-(7,8-dimethoxy-1,3-dimethyl-2-oxo-2,3-dihydro-1H-1,4-benzodiazepin-5-yl) benzamide] is 4.5 µM. The same measure, in the same setting: the same measure for `COc1ccc2c(c1)N(C)C(=O)CN=C2c1cccc(C(N)=O)c1` [Compound 5l, 3-(8-methoxy-1-methyl-2-oxo-2,3-dihydro-1H-1,4-benzodiazepin-5-yl)benzamide]: 14 µM; for `COc1cc2c(cc1OC)N(C)C(=O)CN=C2c1cccc(C#CCNC(=O)OC(C)(C)C)c1` [Compound 6a, Tert-butyl-3-[3-(7,8-dimethoxy-1-methyl-2-oxo-2,3-dihydro-1H-1,4-benzodiazepin-5-yl)phenyl]propynylcarbamate]: 8.4 µM. Still for that read-out and setting: the same measure for `CCCCC#Cc1cccc(C2=NCC(=O)N(C)c3cc(OC)c(OC)cc32)c1` [Compound 6b, 7,8-dimethoxy-5-(3′-hex-1-ynylphenyl)-1-N-methyl-1,3-dihydro-2H-1,4-benzodiazepin-2-one]: 1.06 µM. For `COc1cc2c(cc1OC)N(C)C(=O)CN=C2c1cccc(C#CCN2CCCCC2)c1` [Compound 6c, 7,8-dimethoxy-1-methyl-5-[3-(3-piperidin-1-ylprop-1-ynyl)phenyl]-1,3-dihydro-2H-1,4-benzodiazepin-2-one], the concentration for half-maximal inhibition (IC50) amounted to 4.3 µM.

The experiment is the same for the next values; noted with them: 10 μM test compound; PDE2 from bovine endothelial cells.
As for `COc1cc2c(cc1OC)C(c1cccc(C(F)(F)F)c1)=NCC(=O)N2` [Compound 3d, 7,8-dimethoxy-[5-(3-trifluoromethyl)phenyl]-1,3-dihydro-2H-1,4-benzodiazepin-2-one], the “PDE2 percentage inhibition at 10 μM” value is reported as 22%. Still for that read-out and setting: the figure for `COc1cc2c(cc1OC)N(Cc1ccc(Cl)c(Cl)c1)C(=O)CN=C2c1cccc(C#N)c1` [Compound 4d, 3-[1-(3,4-chlorobenzyl)-7,8-dimethoxy-2-oxo-2,3-dihydro-1H-1,4-benzodiazepin-5-yl]-benzonitrile] is 47.6%.

Take `COc1ccc(CN2C(=O)CN=C(c3cccc(C#N)c3)c3cc(OC)c(OC)cc32)cc1` [Compound 4e, 3-[7,8-dimethoxy-l-(4-methoxybenzyl)-2-oxo-2,3-dihydro-1H-1,4-benzodiazepin-5-yl]-benzonitrile]: the “PDE2 percentage inhibition at 10 μM” value was found to be 13.9%.

The experiment is the same for the next values; noted with them: 10 μM test compound; PDE2 from bovine endothelial cells; read-out: PDE2 percentage inhibition at 10 μM.
As for `COc1cc2c(c(Br)c1OC)N(C)C(=O)CN=C2c1cccc(C(N)=O)c1` [Compound 5d, 3-(9-bromo-7,8-dimethoxy-1-methyl-2-oxo-2,3-dihydro-1H-1,4-benzodiazepin-5-yl)benzamide], the inhibition – broadly, the relative decrease from the control value, in per cent – at 10 µM was 19.2%.

The experiment is the same for the next values; noted with them: read-out: PDE2 percentage inhibition at 10 μM.
As for `COc1cc2c(cc1OC)N(Cc1ccc(Cl)cc1)C(=O)CN=C2c1cccc(C#N)c1` [Compound 4c, 3-[1-(4-chlorobenzyl)-7,8-dimethoxy-2-oxo-2,3-dihydro-1H-1,4-benzodiazepin-5-yl]-benzonitrile], the inhibition at 10 µM came out at 35.3%. The same measure, in the same setting: the same measure for `COc1cc2c(cc1OC)N(Cc1cccc(Cl)c1)C(=O)CN=C2c1cccc(C#N)c1` [Compound 4f, 3-[1-(3-chlorobenzyl)-7,8-dimethoxy-2-oxo-2,3-dihydro-1H-1,4-benzodiazepin-5-yl]-benzonitrile]: 17.1%; for `COc1cc2c(cc1OC)N(Cc1cccc(C(F)(F)F)c1)C(=O)CN=C2c1cccc(C#N)c1` [Compound 4g, 3-{7,8-dimethoxy-2-oxo-1-[3-(trifluoromethyl)benzyl]-2,3-dihydro-1H-1,4-benzodiazepin-5-yl]-benzonitrile]: 14.3%. The same measure, in the same setting: the same measure for `COc1cc2c(cc1OC)N(Cc1ccccc1Cl)C(=O)CN=C2c1cccc(C#N)c1` [Compound 4h, 3-[1-(2-chlorobenzyl)-7,8-dimethoxy-2-oxo-2,3-dihydro-1H-1,4-benzodiazepin-5-yl]-benzonitrile]: 16%; for `COc1cc2c(cc1OC)N(Cc1ccc(C(F)(F)F)cc1)C(=O)CN=C2c1cccc(C#N)c1` [Compound 4i, 3-{7,8-dimethoxy-2-oxo-1-[4-(trifluoromethyl)benzyl]-2,3-dihydro-1H-1,4-benzodiazepin-5-yl}-benzonitrile]: 15.7%; for `COc1cc2c(cc1OC)N(CCc1ccccc1)C(=O)CN=C2c1cccc(C#N)c1` [Compound 4j, 3-[7,8-dimethoxy-2-oxo-1-(2-phenylethyl)-2,3-dihydro-1H-1,4-benzodiazepin-5-yl]-benzonitrile]: 5.6%.

Regarding `CCN1C(=O)CN=C(c2cccc(C#N)c2)c2cc(OC)c(OC)cc21` [Compound 4k, 3-(1-ethyl-7,8-dimethoxy-2-oxo-2,3-dihydro-1H-1,4-benzodiazepin-5-yl)benzonitrile], the inhibition at 10 µM worked out at 75.9%. The same measure, in the same setting: the figure for `CCCN1C(=O)CN=C(c2cccc(C#N)c2)c2cc(OC)c(OC)cc21` [Compound 4l, 3-(7,8-dimethoxy-1-propyl-2-oxo-2,3-dihydro-1H-1,4-benzodiazepin-5-yl)benzonitrile] is 72.1%; for `CCN1C(=O)CN=C(c2cccc(C(F)(F)F)c2)c2cc(OC)c(OC)cc21` [Compound 4q, 7,8-dimethoxy-1-ethyl-5-[3-(trifluoromethyl)phenyl]-1,3-dihydro-2H-1,4-benzodiazepin-2-one] it is 32%.

In the case of `CCCN1C(=O)CN=C(c2cccc(C(F)(F)F)c2)c2cc(OC)c(OC)cc21` [Compound 4r, 5-[3-(trifluoromethyl)phenyl]-7,8-dimethoxy-1-n-propyl-1,3-dihydro-1,4-benzodiazepin-2-one], the inhibition at 10 µM was determined as 34%. The same measure, in the same setting: the same measure for `COc1cc2c(cc1OC)N(Cc1ccccc1)C(=O)CN=C2c1cccc(C(F)(F)F)c1` [Compound 4s, 1-benzyl-5-[3-(trifluoromethyl)phenyl]-7,8-dimethoxy-1,3-dihydro-1,4-benzodiazepin-2-one]: 14%; for `COc1cc2c(c(-c3ccccc3)c1OC)C(c1cccc(C(N)=O)c1)=NCC(=O)N2C` [Compound 5c, 3-(7,8-dimethoxy-1-methyl-2-oxo-6-phenyl-2,3-dihydro-1H-1,4-benzodiazepin-5-yl)benzamide]: 53.3%; for `COc1cc2c(cc1OC)N(Cc1ccccc1)C(=O)CN=C2c1cccc(C(N)=O)c1` [Compound 5h, 3-(1-benzyl-7,8-dimethoxy-2-oxo-2,3-dihydro-1H-1,4-benzodiazepin-5-yl)benzamide]: 0%. On to `CCOC(=O)CN1C(=O)CN=C(c2cccc(C(N)=O)c2)c2cc(OC)c(OC)cc21` [Compound 5i, Ethyl{5-[3-(aminocarbonyl)phenyl]-7,8-dimethoxy-2-oxo-2,3-dihydro-1H-1,4-benzodiazepin-1-yl}acetate], for which the inhibition at 10 µM was found to be 0%.

As for `COc1cc2c(cc1OC)N(C)C(=O)C(Cc1ccc(Cl)c(Cl)c1)N=C2c1cccc(C(N)=O)c1` (stereo not shown) [Compound 5k, 3-[3-(3,4-dichlorobenzyl)-7,8-dimethoxy-1-methyl-2-oxo-2,3-dihydro-1H-1,4-benzodiazepin-5-yl]benzamide], the inhibition at 10 µM is 67.8%.

With `COc1cc2c(c(-c3ccccc3)c1OC)N(C)C(=O)CN=C2c1cccc(C(N)=O)c1` [Compound 5m, 3-(7,8-dimethoxy-1-methyl-2-oxo-9-phenyl-2,3-dihydro-1H-1,4-benzodiazepin-5-yl)benzamide], the inhibition at 10 µM amounted to 5.9%.

The values above are taken from patent US20060128695A1, “Cyclic nucleotide phosphodiesterase inhibitors, preparation and uses” (NEURO3D, priority 2002, published 2006).
